Results taken from ChEMBL document CHEMBL1133255 (Bioorg Med Chem Lett, 2000).

Assays:
[1] = biological target: 5-hydroxytryptamine receptor 1B (Homo sapiens, UniProt P28222); assay: Binding affinity towards cloned human 5-hydroxytryptamine 1B receptor
[2] = biological target: 5-hydroxytryptamine receptor 1D (Homo sapiens, UniProt P28221); assay: Binding affinity for human 5-hydroxytryptamine 1D receptor
Oryctolagus cuniculus = species on record: Oryctolagus cuniculus; assay: The compound was tested for its […] activity using rabbit saphenous vein (RSV) preparation; assay type: functional

Chain of 5-hydroxytryptamine receptor 1D (P28221 whole entry): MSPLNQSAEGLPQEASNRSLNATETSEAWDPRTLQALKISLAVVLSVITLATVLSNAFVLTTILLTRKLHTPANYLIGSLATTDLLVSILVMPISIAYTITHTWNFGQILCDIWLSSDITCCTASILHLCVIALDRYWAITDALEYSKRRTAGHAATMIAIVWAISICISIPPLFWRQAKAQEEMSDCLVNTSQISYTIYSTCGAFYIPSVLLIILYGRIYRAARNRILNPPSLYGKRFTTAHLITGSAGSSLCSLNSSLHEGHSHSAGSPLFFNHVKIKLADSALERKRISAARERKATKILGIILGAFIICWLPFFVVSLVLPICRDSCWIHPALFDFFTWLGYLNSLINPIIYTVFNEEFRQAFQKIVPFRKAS
Chain of 5-hydroxytryptamine receptor 1B (P28222 whole entry): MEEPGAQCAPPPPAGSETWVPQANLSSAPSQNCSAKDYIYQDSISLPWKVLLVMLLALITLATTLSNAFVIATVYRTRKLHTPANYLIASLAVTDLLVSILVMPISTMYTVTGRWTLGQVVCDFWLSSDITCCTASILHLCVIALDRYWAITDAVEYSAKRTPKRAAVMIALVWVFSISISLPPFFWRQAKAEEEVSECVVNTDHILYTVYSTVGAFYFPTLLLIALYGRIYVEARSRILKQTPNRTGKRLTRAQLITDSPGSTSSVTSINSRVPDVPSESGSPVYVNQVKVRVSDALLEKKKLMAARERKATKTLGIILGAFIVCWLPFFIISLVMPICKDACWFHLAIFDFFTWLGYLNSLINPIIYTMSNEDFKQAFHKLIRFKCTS

Row | SMILES | Ki [1] [µM] | Ki [2] [µM] | EC50 (Oryctolagus cuniculus) [µM]
1 | CCc1ccc2[nH]cc(CCN3CCCC3)c2c1 | 1.62 | 0.045 | –
2 | CNS(=O)(=O)Cc1ccc2[nH]cc(CCN(C)C)c2c1 | – | – | 0.174
3 | CC(C)(C)c1ccc2[nH]cc(CCN3CCCC3)c2c1 | 0.312 | 0.0025 | 1.17
4 | CN1CCC[C@@H]1Cc1c[nH]c2ccc(C(C)(C)C)cc12 | 0.0155 | 0.00025 | 0.0518
5 | CC(C)c1ccc2[nH]cc(C[C@H]3CCCN3C)c2c1 | 0.0104 | 0.00029 | 0.0286
6 | Cc1ccc2[nH]cc(C[C@H]3CCCN3C)c2c1 | 0.118 | 0.0035 | 0.102
7 | Cn1cc(CCN)c2cc(C(C)(C)C)ccc21 | – | 0.00045 | –
8 | CCc1ccc2[nH]cc(C[C@H]3CCCN3C)c2c1 | 0.047 | 0.00097 | 0.0147
9 | CCc1ccc2[nH]cc(CCN(C)C)c2c1 | – | 0.016 | 0.35
10 | CC(C)c1ccc2[nH]cc(CCN(C)C)c2c1 | 0.0142 | 0.0004 | –
11 | CC(C)c1ccc2[nH]cc(CCN3CCCC3)c2c1 | 0.472 | 0.0053 | 0.44
